{
  "source": "paper PMC6806261",
  "about": "“Modified Peptide YY Molecule Attenuates the Activity of NPY/AgRP Neurons and Reduces Food Intake in Male Mice” (Endocrinology, 2019)",
  "key": {"[1]": {"system": "Agrp-cre::hM3Dq-mCherry mice", "experiment": "DREADD (hM3Dq/CNO)-stimulated feeding", "format": "in vivo, mouse", "procedure": "For surgery, mice (8 to 12 weeks) were anesthetized with isoflurane (1 L/min O2 with 2% isoflurane). Following surgery, all mice received 0.03 mg/kg buprenorphine (Buprenex, Reckitt Benckiser, Slough, UK) and were allowed a minimum of 1 week to recover before treatment started. DIO mice received subcutaneous implants of an Alzet 2002 osmotic minipump (Durect, Cupertino, CA). All of the DIO mice experienced a small reduction in body weight following implantation of the minipump. For experiments using designer receptors exclusively activated by designer drugs (DREADDs), AgRP-cre mice received bilateral injections of AAV2-hSyn-DIO-hM3Dq-mCherry (UNC Vector Core, Chapel Hill, NC) ([35]) into the arcuate nucleus (3 × 23 nL per side), using the following coordinates relative to Bregma, according to Paxinos and Franklin ([36]): anterior, −1.5 mm; lateral, ±0.30 mm; and ventral, −6.2 mm. Subsequently, the DREADDs were activated by IP injection of the designer drug, clozapine N-oxide (CNO; Sigma-Aldrich, St. Louis, MO) at 1 mg/kg."}, "NPY/AgRP neurons": {"system": "NPY/AgRP neurons", "experiment": "cFos immunohistochemistry in arcuate NPY/AgRP neurons", "format": "in vivo, mouse", "procedure": "Mice were transcardially perfused with chilled 0.9% NaCl followed by 4% paraformaldehyde in 0.1M phosphate buffer (Sigma-Aldrich). Whole brains were postfixed overnight and then dehydrated in 30% sucrose solution. Brains were flash frozen on dry ice, and then 30 µm sections were collected using a freezing sledge microtome and transferred to 0.1M phosphate buffer.\nFor chromogenic visualization of cFos, free-floating sections were incubated sequentially in rabbit anit-cFos primary [1:1000; SC-52; Santa Cruz, Dallas, TX ([37])], biotinylated goat anit-rabbit secondary [1:500; BA-1000; Vector Laboratories, Cambridge, UK ([38])], and streptavidin-biotin-peroxidase complex (1:500; RPN1051; GE Healthcare, Chicago, IL). This was combined with fluorescence staining for GFP or mCherry reporters; this required coincubation of sections with chicken anit-GFP [1:1000; 13970; Abcam, Cambridge, UK ([39])] followed by donkey anit-chicken^ALEXA 488 [1:1000; 703-545-155, Jackson ImmunoResearch, West Grove, PA ([40])], or with rabbit anti-DsRed [1:1000, 632396, Clontech, CA ([41])] followed by donkey […]^ALEXA 594 [1:1000; 705-585-147; Jackson ImmunoResearch, ([42])]. Sections were mounted on slides before imaging on an Olympus BX51 upright microscope. Images were processed and analyzed using open-source FIJI software."}, "mice [2]": {"system": "mice", "experiment": "Normal nighttime feeding after SC injection", "format": "in vivo, mouse", "settings": "serial dilution, food intake after 2 hours", "procedure": "(§1) For acute experiments, mice were acclimated to handling for 2 weeks and housed singly with free access to food at least 4 days before experiments. Nighttime injections of NNC0165-1273 were given subcutaneously (SC) 30 minutes before start of “dark phase,” and food intake was measured 1, 2, 4, and 14 hours later. Daytime feeding experiments commenced 4 hours into the “light phase” [Zeitgeber time (ZT) 4]; injections of ghrelin (2 mg/kg, IP) and NNC0165-1273/PYY3-36 (various doses, SC) were given concomitantly, and food intake measured at 1, 2, 4, and 24 hours later."}, "human Y5 receptor": {"target": "human Y5 receptor", "settings": "ref [9] Østergaard et al., read-out: binding inhibitory constant (Ki), Y5 receptor; cited from earlier work", "source_text": "(§2) PYY3-36 and ghrelin were purchased from Bachem (Bubendorf, Switzerland). NNC0165-1273 was identified from a series of modified PYY peptides and synthesized with the aim of increased selectivity for Y2 receptors vs the other Y receptors [peptide no. 29 in Østergaard et al. ([9])]."}, "[3]": {"settings": "cited from earlier work", "source_text": "as §2"}, "human Y4 receptor": {"target": "human Y4 receptor", "settings": "ref [9] Østergaard et al., read-out: binding inhibitory constant (Ki), Y4 receptor; cited from earlier work", "source_text": "as §2"}, "human Y2 receptor": {"target": "human Y2 receptor", "settings": "same binding assays for both peptides, ref [9] Østergaard et al., read-out: binding inhibitory constant (Ki), Y2 receptor; cited from earlier work", "source_text": "as §2"}, "human Y1 receptor": {"target": "human Y1 receptor", "settings": "ref [9] Østergaard et al., read-out: binding inhibitory constant (Ki), Y1 receptor; cited from earlier work", "source_text": "as §2"}, "mice [4]": {"system": "mice", "experiment": "Ghrelin-induced daytime feeding", "format": "in vivo, mouse", "settings": "2 mg/kg IP, light phase, fed mice", "procedure": "as §1"}, "[5]": {"system": "arcuate NPY/AgRP neurons (Npy-hrGFP)", "experiment": "Current clamp patch electrophysiology in brain slices", "format": "cell-based, mouse", "settings": "50 nM bath application; results not shown", "procedure": "Npy-hrGFP mice were euthanized by decapitation, and the brains rapidly removed and sliced on a vibratome (Campden Instruments, Loughborough, UK) in ice-cold oxygenated incubation artificial cerebrospinal fluid (aCSF) containing (mM): 95 NaCl, 1.8 KCl, 1.2 KH2PO4, 7 MgSO4, 26 NaHCO3, 0.5 CaCl2, 15 glucose, and 50 sucrose. Slices were perfused with room temperature recording aCSF containing (mM): 127 NaCl, 1.8 KCl, 1.2 KH2PO4, 1.3 MgSO4, 26 NaHCO3, 2.4 CaCl2, and 5 glucose. Npy-hrGFP neurons were visualized in 250-µm slices using an Olympus BX51 with inbuilt infrared video-enhanced differential interference contrast optics and GFP fluorescence optics. Neurons were patched using 7 to 10 MΩ pipettes containing (mM): 130 K-gluconate, 10 KCl, 2 MgCl2, 10 HEPES, 0.5 EGTA, 2 K2ATP, and 0.5 NaGTP. Data were recorded on an Axoclamp 2A amplifier in bridge mode (Molecular Devices, San Jose, CA) and a CED 1401 A/D data acquisition interface (CED, Cambridge, UK) to give current clamp data at 30 kHz sampling frequency. NNC0165-1273 (Novo Nordisk, Maaloev, Denmark) was diluted in aCSF to a concentration of 50 nM and applied to perfusion chamber through a gravity-driven system. Effects were sampled with no current manipulations. All applications were timed for 3 to 5 minutes and perfusion flow was maintained at standard 1 to 2 mL/min^−1."}},
  "note": "Where no end group is shown, it is not given here.",
  "data": [
    {"compound": "C[N+]1([O-])CCN(C2=Nc3cc(Cl)ccc3Nc3ccccc32)CC1", "note": "[CNO, clozapine N-oxide]", "values": [
      {"measurement": "food intake in Agrp-cre::hM3Dq-mCherry mice", "setting": "[1]; single IP injection 1 mg/kg, vs saline", "result": "substantial increase in food intake"},
      {"measurement": "food intake in wild-type mice", "setting": "[1]; wild-type mice, results not shown", "result": "do not respond"}
    ]},
    {"compound": "PYY3-36: truncated major circulating form of gut hormone peptide YY; purchased from Bachem", "values": [
      {"measurement": "ghrelin-induced activation (cFos) of NPY/Agrp neurons", "setting": "NPY/AgRP neurons; pretreatment before ghrelin 2 mg/kg, perfused 90 minutes after ghrelin, Npy-hrGFP mice", "result": "blocked"},
      {"measurement": "threshold dose needed to inhibit nighttime feeding", "setting": "mice [2]", "result": 0.04, "unit": "µmol/kg"},
      {"measurement": "Ki", "setting": "human Y5 receptor", "result": 3.2, "unit": "nM"},
      {"measurement": "half-life in pig plasma", "setting": "[3]", "result": 3.33, "unit": "h"},
      {"measurement": "Ki", "setting": "human Y4 receptor", "result": 13, "unit": "nM"},
      {"measurement": "Ki", "setting": "human Y2 receptor", "result": 0.4, "unit": "nM"},
      {"measurement": "Ki", "setting": "human Y1 receptor", "result": 40, "unit": "nM"}
    ]},
    {"compound": "ghrelin: orexigenic peptide purchased from Bachem, used to induce feeding and activate NPY/AgRP neurons (GSSFLSPEHQRVQQRKESKKPPAKLQPR; ends and bridges not checked; UniProt Q9UBU3 24-51, looked up)", "values": [
      {"measurement": "cFos expression in the arcuate nucleus, notably NPY-hrGFP neurons", "setting": "NPY/AgRP neurons; ghrelin 2 mg/kg, 90 minutes after injection", "result": "substantial increase"},
      {"measurement": "food intake after ghrelin alone", "setting": "mice [4]", "result": "substantial increase in food intake"},
      {"measurement": "resting membrane potential of NPY/AgRP neurons", "setting": "[5]", "result": "increase in the resting membrane potential"}
    ]}
  ]
}
